Assay results published in patent US4072675A, “N-phenyl amidines” (Mead Johnson & Company, priority 1975, dated 1978).
Converted amounts (≈) assume the structure as drawn. Counter-ions that a name gives are not always drawn. Like-named read-outs stand apart in the source and are kept apart here.

Legend:
[1] = Diuretic test in rats according to the Lipschitz method (urine volume and electrolyte excretion vs urea control); format: in vivo; settings: rat
Procedure: The compounds of the present invention are evaluated as diuretics according to the method of W. L. Lipschitz, et al., J. Pharmacol. Expt. Therap., 79, 97 (1943). In this method, groups of 8 rats are fasted 18 hours prior to the experiment. A control group is hydrated orally with 25 ml. per kilogram of body weight of isotonic saline solution which is also the vehicle used for dosing the test compound. One control group received a dose of 960 mg./kg. of body weight of urea. Animals of other groups are tested with various doses of the test compound. Immediately after treatment, the animals are placed in metabolism cages (two rats of the same group per cage) and maintained without food or water for 5 hours. The volume of urine excreted by each pair is determined after this period and the pooled urine is analyzed for sodium, potassium, and chloride ions. […] In this test, the N-phenyl amidines of Formula I were orally administered in doses ranging from 2.7 to 25 mg./kg. of body weight.
One of the disadvantages associated with diuretics such as the thiazides is believed to stem largely from increased excretion of potassium ion concomitant with water elimination. […] As stated hereinabove,excessive excretion of potassium ion may cause an electrolyte imbalance resulting in adverse side effects.

[2] = system: aconitine induced atrial arrhythmia; test: In vivo dog arrhythmia test (aconitine induced atrial arrhythmia); settings: Canis lupus familiaris, iv, read-out: effective dose restoring normal cardiac rhythm
Description: In the in vivo dog arrhythmia test, the chest of an anesthetized dog is opened in the mid-line and the right and left atrial appendages exposed to small slits in the pericardium. Bypolar recording electrodes are affixed to atrial surfaces and a 4 × 4 mm. piece of clean cloth is fixed to surface of the right auricular appendage. Control recordings are made of various heart functions including femoral arterial blood pressure and right and left atrail electrograms. Atrial arrhythmia is then induced by placing 3-5 drops of a solution of aconitine on the cloth which is fixed to the right atrium. An irregular, rapid atrial rate is produced within 1 minute. Throughout the test, fresh aconitine (2-3 drops) is placed on the cloth at 10 minute intervals. The test compound is administered intravenously 5 minutes after the initial establishment of the arrhythmia and infusion continued at a slow rate until an effective dose which re-establishes normal rhythm of the heart is obtained.
The Formula Ia N-phenylamidines are effective both orally and parenterally as antiarrhythmic agents. For instance, intravenous administration of about 2.5 mg./kg. of 3,4,5,6-tetrahydro-7-[(N-phenyl)-phenethylamino]-2H-azepine or 4,5,6,7,8,9-hexahydro-2-(N-phenylphenethyl-amino)-3H-azonine effectively restores normal cardiac rhythm to induced arrhythmia in the dog.

[3] = system: chloroform induced arrhythmia; test: Chloroform induced arrhythmia in the mouse; format: in vivo; settings: ip, intraperitoneal, read-out: ED50 preventing chloroform induced arrhythmia
Description: Another in vivo test indicative of antiarrhythmic activity is chloroform induced arrhythmia in the mouse.

rabbit ileum = test: In vitro smooth muscle relaxant test, isolated rabbit ileum with spasmogen; format: cell-based; settings: from EC50 vs spasmogen, papaverine = reference
Procedure: Smooth muscle relaxant activity of the compounds of the present invention can be measured in standard in vitro and in vivo pharmacological tests. One such in vitro test is carried out essentially as follows. A segment of rabbit ileum is suspended and oxygenated in Tyrode's solution and affixed to a tension transducer for electronic recording of isometric contractions. After controlled responses to a standard dose of a spasmogen such as barium chloride (0.25 mg./ml.), acetyl choline chloride (1.0 mcg./ml.), etc., are established, the test compound is added and the response to the spasmogen, in the presence of the test agent, again determined. Test compound effect is measured as the percentage reduction in the response to the spasmogen, in the presence of the test compound, from the mean control response. A minimum of four trials is obtained with each of two to five different concentrations of the test compound. The data are expressed in log dose response curves and estimates made therefrom of the EC50 (concentration causing 50% reduction in response of the tissue to the spasmogen). In general, the effect of compounds identified by Formula I on the rabbit ileum is similar to papaverine, a well-known smooth muscle relaxant. […]

intestinal smooth muscle = test: In vivo intestinal smooth muscle relaxation in anesthetized cat (intraduodenal pressure)
Procedure: Intestinal smooth muscle relaxant activity can also be measured in an in vivo cat preparation. In this test, a balloon is inserted through a small incision in the stomach of an anesthetized cat to a point about 10 cm. down the duodenum and intralumenal intestinal pressure changes recorded. A solution or suspension of the test agent is administered intraduodenally about 2 cm. beyond the balloon placed for recording intraduodenal pressure in volume doses of 1 ml./kg. body weight. This means of administration mimics oral administration. Various doses of the test agent are administered and an inhibitory dose which supresses intestinal […] by 50% of maximum is determined. This value is designated the ID50. N-benzyl-N'-tert-butyl-N-phenylforamidine hydrochloride compared to papaverine is about 1.5 times as potent in this test.

rabbit atrium = test: Isolated rabbit atrium test (refractory period); format: cell-based; settings: Oryctolagus cuniculus, read-out: EC50 (50% of maximal increase in refractory period)
Procedure: In the rabbit atrium test, the left atrium is placed in Chenoweth's solution warmed to 30° C. and irrigated with 95% oxygen:5% carbon dioxide. The lower end of the atrium is attached to a small hook fixed in the bath and the upper end is connected to a transducer to record contractile activity. The atrium is electrically stimulated at a basic rate of 30 per minute employing square wave pulses of 10 millisecond duration at 1.2-1.5 times threshold voltage. The test compound is introduced into the bath and the test repeated after a 5 minute interval. A dose response relationship is obtained by additional doses of the test compound. Potency of a test agent can be expressed as the effective concentration which produces 50% of the maximal increase in the measured refractory period of the steady state atrium. This value is designated the EC50.

[4] = system: guinea pig isolated tracheal spiral; test: In vitro guinea pig isolated tracheal spiral test; format: cell-based
Procedure: Another in vitro test measuring the smooth muscle relaxant properties of the compounds of the present invention employs the guinea pig isolated tracheal spiral and is carried out essentially as described by Lish, et al., J. Pharmacol. Exp. Therap., 129, 191 (1960). As illustrative of the activity of the compounds of the present invention in this test there can be mentioned 3-[(N-1-pyrrolin-2-yl-p-anisidino)methyl]indole hydrochloride which is about 1.7 times as potent as aminophylline.

[5] = system: histamine challenged guinea pig; test: Histamine challenged guinea pig aerosol test (bronchodilation); format: in vivo; settings: oral
Description: As a bronchodilating agent, 3-[(N-1-pyrrolin-2-yl-p-anisidino)methyl]indolehydrochloride is of particular interest. In the histamine challenged guinea pig aerosol test, refer to Turner, Screening Methods In Pharmacology, page 214 (1965) (Academic Press, New York), this compound is about 1.4 times as potent as aminophylline when administered orally.

[6] = rabbit left atrium, 30° C., Chenoweth's solution

## c1ccc(N=C2CCCN2)cc1 [2-phenyliminopyrrolidine, reference compound]
[1]; Lipschitz method
  diuretic activity (in words): substantially inactive as a diuretic agent

## c1ccc(CCN(C2=NCCCCC2)c2ccccc2)cc1 [3,4,5,6-tetrahydro-7-[(N-phenyl)phenethylamino]-2H-azepine]
[2]
  minimal effective dose: ~2.5 mg/kg
[3]
  ED50: 11.5 mg/kg

## c1ccc(CCN(C2=NCCCCCCC2)c2ccccc2)cc1 [4,5,6,7,8,9-hexahydro-2-(N-phenylphenethylamino)-3H-azonine]
[2]
  minimal effective dose: ~2.5 mg/kg

## CC(C)(C)N=CN(CCc1ccccc1)c1ccccc1.Cl [Example 1, N'-tert-Butyl-N-phenethyl-N-phenylformamidine hydrochloride]
Rabbit ileum
  smooth muscle relaxant potency relative to papaverine (times as potent): 5

## CC(C)(C)N=CN(Cc1ccccc1)c1ccccc1.Cl [Example 2, N-Benzyl-N'-tert.-butyl-N-phenylformamidine hydrochloride]
Intestinal smooth muscle
  potency relative to papaverine (times as potent, ID50): about 1.5

## CC1CCC(N(Cc2ccccc2)c2ccccc2)=N1.Cl (stereo not shown) [Example 5, 5-Methyl-2-(N-phenylbenzylamino)-1-pyrroline hydrochloride]
[1]; oral, 6.25 mg./kg.
  ratio of sodium ion excretion to potassium ion excretion: 2.7
[1]; oral, 6.25 mg./kg., 5 hours
  ratio for potassium ion excretion vs urea control group: 0.75
  ratio for sodium ion excretion vs urea control group: 2.03
  ratio for volume excretion vs urea control group: 2.32

## Cl.c1ccc(CCN(C2=NCCCCC2)c2ccccc2)cc1 [Example 10, 3,4,5,6-Tetrahydro-7-[(N-phenyl)phenethylamino]-2H-azepine hydrochloride]
Rabbit atrium; [6]
  EC50: 7.2 µg/mL

## COc1ccc(N(Cc2c[nH]c3ccccc23)C2=NCCC2)cc1 [Example 34, 3-[N-1-Pyrrolin-2-yl-p-anisidino)methyl]indole hydrochloride]
[4]
  potency relative to aminophylline (times as potent): about 1.7
[5]
  bronchodilating potency relative to aminophylline (times as potent): about 1.4

## CC1CCC(N(Cc2c[nH]c3ccccc23)c2ccccc2)=N1.Cl (stereo not shown) [Example 37, 3-[[N-(5-methyl-1-pyrrolin-2yl)anilino]methyl]indole hydrochloride]
Rabbit ileum
  smooth muscle relaxant potency relative to papaverine (times as potent): 1.4

## c1ccc(CCN(C2=NCCCCCC2)c2ccccc2)cc1 [Example 60, 3,4,5,6,7,8-Hexahydro-2-(N-phenylphenethylamino)azocine hydrochloride hemihydrate]
Rabbit atrium; [6]
  EC50: 2.5 µg/mL

## Cl.c1ccc(CCN(C2=NCCCCCCC2)c2ccccc2)cc1 [Example 61, 4,5,6,7,8,9-Hexahydro-2-(N-phenylphenethylamino)-3H-azonine Hydrochloride]
Rabbit atrium; [6]
  EC50: 1.9 µg/mL

## NS(=O)(=O)c1cc2c(cc1Cl)NCNS2(=O)=O [Hydrochlorothiazide, reference compound]
[1]; oral, 6.25 mg./kg.
  ratio of sodium ion excretion to potassium ion excretion: 1.65

## C=C[C@H]1C[N@@]2CC[C@H]1C[C@@H]2[C@@H](O)c1ccnc2ccc(OC)cc12 [Quinidine, reference compound]
[2]
  minimal effective dose: 6 mg/kg
Rabbit atrium
  EC50: 18 µg/mL (≈ 55.5 µM)
